Measured values published in PubChem BioAssay (NCI).
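Tested at 5 concentrations; 48 h exposure; 96-well plates; endpoints linearly interpolated, else capped at highest concentration. TGI: concentration producing complete growth inhibition.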

How the values were obtained:
Assay in all cases: growth of human tumour cells (NCI), 48 h
786-0 renal = system: 786-0 renal
BT-549 breast = system: BT-549 breast
CAKI-1 renal = system: CAKI-1 renal
CCRF-CEM leukemia = system: CCRF-CEM leukemia
EKVX NSCLC = system: EKVX NSCLC
HCT-15 colon = system: HCT-15 colon
HL-60(TB) leukemia = system: HL-60(TB) leukemia
HT29 colon = system: HT29 colon
IGROV1 ovarian = system: IGROV1 ovarian
LOX IMVI melanoma = system: LOX IMVI melanoma
M14 melanoma = system: M14 melanoma
MALME-3M melanoma = system: MALME-3M melanoma
MDA-MB-435 = system: MDA-MB-435
NCI-H23 lung = system: NCI-H23 lung
NCI-H460 lung = system: NCI-H460 lung
OVCAR-4 ovarian = system: OVCAR-4 ovarian
OVCAR-8 ovarian = system: OVCAR-8 ovarian
SK-OV-3 ovarian = system: SK-OV-3 ovarian
T-47D breast = system: T-47D breast
UO-31 renal = system: UO-31 renal

| Compound | TGI (786-0 renal) [µM] | TGI (BT-549 breast) [µM] | TGI (CAKI-1 renal) [µM] | TGI (CCRF-CEM leukemia) [µM] | TGI (EKVX NSCLC) [µM] | TGI (HCT-15 colon) [µM] | TGI (HL-60(TB) leukemia) [µM] | TGI (HT29 colon) [µM] | TGI (IGROV1 ovarian) [µM] | TGI (LOX IMVI melanoma) [µM] | TGI (M14 melanoma) [µM] | TGI (MALME-3M melanoma) [µM] | TGI (MDA-MB-435) [µM] | TGI (NCI-H23 lung) [µM] | TGI (NCI-H460 lung) [µM] | TGI (OVCAR-4 ovarian) [µM] | TGI (OVCAR-8 ovarian) [µM] | TGI (SK-OV-3 ovarian) [µM] | TGI (T-47D breast) [µM] | TGI (UO-31 renal) [µM] |
| --- | --- | --- | --- | --- | --- | --- | --- | --- | --- | --- | --- | --- | --- | --- | --- | --- | --- | --- | --- | --- |
| Cc1ccc(S(=O)(=O)N/N=C2\CCCCCCCCCCC2CN(C)C)cc1 (stereo not drawn) | 29.9 | 32.1 | 50.4 | 37.2 | 70 | 29 | 97.5 | 29.5 | 30.7 | 31.5 | 31.1 | 30.9 | 28 | 55.8 | 25.3 | 68.3 | 30.7 | 36 | 30.2 | 21 |
| Nc1nc(Cl)c2ncn(Cc3cccc(CCl)c3)c2n1 | 22.6 | 17.4 | 5.37 | > 30.7 | 21.2 | 5.58 | > 36.1 | 19.2 | 12.3 | 13.4 | 12.9 | 18.1 | 29 | 4.23 | 27 | 5.07 | 11.3 | 50.8 | 42.1 | 33.7 |
| O=C1OCC(c2ccc(Cl)cc2)=C1Cl | 40.6 | 53.9 | 88.4 | 75.6 | > 100 | > 100 | 48.5 | > 100 | 25.2 | 60.3 | 41.8 | 32.7 | > 100 | 54.6 | 46.2 | > 100 | 73.6 | > 100 | > 100 | 33.9 |
| O=c1oc2ccccc2c(O)c1C(c1ccc(-c2ccccc2)cc1)c1c(O)c2ccccc2oc1=O | 81.3 | 40.4 | 39.4 | 93.8 | > 100 | 40 | 51.7 | 38.3 | > 100 | 44.4 |  | 65 | 46.9 | 56.8 | 33.7 | > 100 | 34.1 |  | > 100 | 31.6 |
| Cc1cn(Cc2cccc(C3=NCCCN3)c2)c(=O)n(Cc2cccc(C3=NCCCN3)c2)c1=O | > 100 | > 100 | > 100 | > 100 | > 100 | > 100 | > 100 |  | > 100 | > 100 | > 100 | > 100 | > 100 | > 100 | > 100 | > 100 | > 100 | > 100 | > 100 | > 100 |
| Nc1cccc(OCC2CCCN3CCCCC23)c1 (stereo not drawn) | 29.6 | 30.9 | 35.2 | 34.4 | 31.7 | 31.5 | 39.7 | 25.1 |  | 31.4 | 41.4 | 40.4 | 40.2 | 34.3 | 36.3 | 47.2 | 34.4 | > 100 | 33.8 | 75.2 |
| COC(=O)c1c(C)c2c(c(C)c1C(=O)OC)-c1c(C)ccc3ccc(C)c-2c13 | > 100 | > 100 | > 100 | > 100 | > 100 | > 55.6 | > 50.7 | 29.6 | > 100 | > 86.5 | > 100 | > 100 | > 100 |  | > 69.4 | > 100 | > 100 | > 100 | > 95.7 | > 100 |
| CCOC(=O)C1C(c2ccc(OC)cc2)c2c([nH][nH]c2=O)CC1(C)O (stereo not drawn) | > 100 | > 100 | > 100 | > 100 | > 100 | > 100 | > 100 | > 100 | > 100 | > 100 | > 100 | > 100 | > 100 | > 100 | > 100 | > 100 | > 100 |  | > 100 | > 100 |
| O=C(COc1ccccc1)N(C(=O)N1CCN(c2ccccc2)CC1)S(=O)(=O)c1ccccc1 | > 100 | > 100 | > 100 | 61.2 | > 100 | > 100 | > 100 | > 100 |  | > 100 | > 100 | > 100 | > 100 | > 100 | > 100 | > 100 | > 100 | > 100 | 87.6 | > 100 |
